Among the data in patent US20140057895A1, “INDAZOLE- AND PYRROLOPYRIDINE-DERIVATIVE AND PHARMACEUTICAL USE THEREOF” (priority 2011, published 2014) are Emax, EC50 and IC50 values, retold here.

Counter-ions that a name gives are not always drawn. Like-named read-outs stand apart in the source and are kept apart here.

What is called EC50 is the concentration at which the effect is half-maximal. Lower therefore signals an effect from little substance. The IC50 is the concentration needed to halve the response being measured.

Assay [1] addresses T1, human 5-HT4b receptor (Homo sapiens, UniProt Q13639).
T1 construct: expressed in transfected cells; host or cells: CHO cells (G418 selection)
Nature of the assay: Test Example 4: Serotonin 4 (5-HT4) receptor agonist activity assay, cAMP HTRF in CHO cells (Table 100). Type of assay: cell-based. As to conditions: mean value; for Emax: CHO, 0.25 h, intrinsic activity, maximal activity of 5-HT defined as 100%, read-out: IA (%); for EC50: concentration showing 50% of IA. The protocol: The cAMP measurement test used herein was carried out by using CISBIO HTRF (trademark) cAMP Hirange kit according to the manufacturer's instructions attached therewith.
CHO cells expressing human 5-HT4b receptor were incubated in Medium 1 [DMEM/1% NEAA, 1% penicillin/streptomycin (P/S), 0.2 mg/mL GENETICIN (G418), 10% FBS] at 37° C. under 5% CO2 condition. Then, the cells were put into Medium 2 (DMEM/10000 cut FBS, G-418, P/S, NEAA) for 1 to 2 hours, and collected by treating with trypsin containing EDTA. The collected cells were suspended in Assay Buffer 1 [100 mM Hanks/HEPES buffer (pH 7.4)], the suspended cells were mixed with the testing compound on 384-well plates, and the cells were incubated at 31° C. for 15 minutes. To the cells were added cAMP-cryptate solution and cAMP-d2 solution, and they were incubated at room temperature for 1 hour. Then, time-resolved fluorescence was measured by En Vision (excitation wavelength: 330 nm, fluorescence wavelength: 620/665 nm).
An intrinsic activity of the compound [IA (%)] and a concentration showing 50% of IA [EC50 (nM)] were calculated from the obtained results. In particular, the intrinsic activity (IA) was calculated on the basis of the maximal activity of 5-HT (measured from 10^−11 M to 10^−7 M) defined as 100%.
In the following table, the compounds used in the test are shown in numbers which correspond to the Example numbers above where the preparations of the compounds are described.
In general terms: In TR-FRET formats the signal depends on donor and acceptor labels being close together.

For assay [2], the target named is T2, 5-HT4 receptor (Cavia porcellus, UniProt O70528).
T2 construct: striatum was isolated which was cryopreserved at −80° C. until use; from tissue; host or cells: guinea pig (Slc-Hartley) striatum membranes
Nature of the assay: Test Example 3: Guinea pig 5-HT4 receptor binding assay, [3H]-GR113808, striatum membranes (Table 98). In a few lines: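 Striatal membranes from Slc-Hartley guinea pigs were incubated with 0.1 nM [3H]-GR113808 and test compounds in 50 mM Hepes pH 7.4 at 37° C for 30 min; nonspecific binding was defined with 30 μM serotonin. Bound radioactivity was collected by filtration, and IC50 was derived from inhibition of specific binding.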

Setting [3] is: Guinea pig 5-HT4 receptor binding assay, [3H]-GR113808, striatum membranes, mean value of each group, read-out: IC50.

T2 sequence (O70528 whole entry): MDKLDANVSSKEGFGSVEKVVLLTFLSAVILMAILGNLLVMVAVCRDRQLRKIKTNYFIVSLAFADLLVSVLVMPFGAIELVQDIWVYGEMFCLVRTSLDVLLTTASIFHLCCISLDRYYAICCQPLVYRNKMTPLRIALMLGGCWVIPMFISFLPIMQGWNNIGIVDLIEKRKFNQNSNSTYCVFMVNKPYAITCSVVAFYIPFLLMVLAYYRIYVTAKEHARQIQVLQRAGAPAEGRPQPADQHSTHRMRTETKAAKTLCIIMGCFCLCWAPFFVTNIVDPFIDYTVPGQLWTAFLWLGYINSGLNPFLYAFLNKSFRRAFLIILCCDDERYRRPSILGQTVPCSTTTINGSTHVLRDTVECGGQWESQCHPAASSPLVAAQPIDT
T1 sequence (Q13639 whole entry): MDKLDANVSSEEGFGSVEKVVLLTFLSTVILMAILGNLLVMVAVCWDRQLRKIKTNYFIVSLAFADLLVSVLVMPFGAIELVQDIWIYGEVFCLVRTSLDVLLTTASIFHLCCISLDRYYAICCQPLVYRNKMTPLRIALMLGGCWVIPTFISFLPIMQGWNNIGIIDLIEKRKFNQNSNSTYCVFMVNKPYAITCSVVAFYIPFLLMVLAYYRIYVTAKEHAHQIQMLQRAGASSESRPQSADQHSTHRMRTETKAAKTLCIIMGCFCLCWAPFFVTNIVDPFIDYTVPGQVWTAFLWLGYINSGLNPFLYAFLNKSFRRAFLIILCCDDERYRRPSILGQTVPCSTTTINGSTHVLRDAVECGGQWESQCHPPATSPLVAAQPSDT

Regarding `CC(C)c1nn(-c2noc(C3CCN(C(C)(C)CO)CC3)n2)c2c(F)cccc12` [Example 402, 2-(4-{3-[7-fluoro-3-(propan-2-yl)-1-indazol-1-yl]-1,2,4-oxadiazol-5-yl}piperidin-1-yl)-2-methylpropan-1-ol], in assay [1], the Emax worked out at 106% and the EC50 was 1.8 nM. Also, the IC50 in assay [2] (setting [3]) was below 20 nM.
On to `COc1ccc(F)c2c1c(C(C)C)nn2-c1noc(C2CCN(C3CCN(C(C)=O)CC3)CC2)n1` [Example 405, 1-(4-{3-[7-fluoro-4-methoxy-3-(propan-2-yl)-1H-indazol-1-yl]-1,2,4-oxadiazol-5-yl}-1,4′-bipiperidin-1′-yl)ethanone], for which, in assay [1], the Emax is 21.6% and the EC50 turned out to be 34.2 nM. Also, the IC50 in assay [2] (setting [3]) was 65.4 nM.
The matching figures for `CC(C)c1nn(-c2noc(C3CCN(C4CCC4)CC3)n2)c2ccccc12` [Example 420, 1-[5-(1-cyclobutylpiperidin-4-yl)-1,2,4-oxadiazol-3-yl]-3-(propan-2-yl)-1H-indazole trifluoroacetate]: 85.6%, 8.2 nM and 73.9 nM.
The matching figures for `CCc1nn(-c2noc(C3CCN(CC4CCOCC4)CC3)n2)c2cc(C)ccc12` [Example 435, 3-ethyl-6-methyl-1-{5-[1-(tetrahydro-2H-pyran-4-ylmethyl)piperidin-4-yl]-1,2,4-oxadiazol-3-yl}-1H-indazole trifluoroacetate]: 1.6%, 11.9 nM and 44.7 nM.
Turning to `CCc1nn(-c2noc(C3CCN(C(C)C)CC3)n2)c2c(F)c(F)ccc12` [Example 445, 3-ethyl-6,7-difluoro-1-{5-[1-(propan-2-yl)piperidin-4-yl]-1,2,4-oxadiazol-3-yl}-1H-indazole trifluoroacetate], in assay [1], the Emax was determined as 52.1% and a half-maximal response (EC50) required 13.2 nM. Further, in assay [2] (setting [3]), the IC50 is below 20 nM.
With `CCc1nn(-c2noc(C3CCN(C4CCCC4)CC3)n2)c2c(F)c(F)ccc12` [Example 447, 1-[5-(1-cyclopentylpiperidin-4-yl)-1,2,4-oxadiazol-3-yl]-3-ethyl-6,7-difluoro-1H-indazole-trifluoroacetate], in assay [1], the Emax is 56.8% and the response was half-maximal at 12.2 nM (EC50). Further, the IC50 in assay [2] (setting [3]) was below 20 nM.
The matching figures for `CCc1nn(-c2noc(C3CCN(C4CCOCC4)CC3)n2)c2c(F)c(F)ccc12` [Example 448, 3-ethyl-6,7-difluoro-1-{5-[1-(tetrahydro-2H-pyran-4-yl)piperidin-4-yl]-1,2,4-oxadiazol-3-yl}-1H-indazole trifluoroacetate]: 57.5%, 8.9 nM and below 20 nM.
Turning to `CCc1nn(-c2noc(C3CCN(CC4CCOCC4)CC3)n2)c2c(F)c(F)ccc12` [Example 449, 3-ethyl-6,7-difluoro-1-{5-[1-(tetrahydro-2H-pyran-4-ylmethyl)piperidin-4-yl]-1,2,4-oxadiazol-3-yl}-1H-indazole trifluoroacetate], in assay [1], the Emax was found to be 76.4% and the EC50 is 31.2 nM. For the same compound, in assay [2] (setting [3]), the IC50 was below 20 nM.
The matching figures for `CC(C)c1nn(-c2noc(C3CCN(C(C)C)CC3)n2)c2c(F)c(F)ccc12` [Example 450, 6,7-difluoro-3-(propan-2-yl)-1-{5-[1-(propan-2-yl)piperidin-4-yl]-1,2,4-oxadiazol-3-yl}-1H-indazole trifluoroacetate]: 87.7%, 15.8 nM and below 20 nM.
For `CC(C)c1nn(-c2noc(C3CCN(C4CCC4)CC3)n2)c2c(F)c(F)ccc12` [Example 451, 1-[5-(1-cyclobutylpiperidin-4-yl)-1,2,4-oxadiazol-3-yl]-6,7-difluoro-3-(propan-2-yl)-1H-indazole-trifluoroacetate], in that order: 83.1%, 13.8 nM and below 20 nM.
For `CC(C)c1nn(-c2noc(C3CCN(C4CCC4)C3)n2)c2c(F)cccc12` (stereo not drawn) [Example 455, 1-[5-(1-cyclobutylpyrrolidin-3-yl)-1,2,4-oxadiazol-3-yl]-7-fluoro-3-(propan-2-yl)-1H-indazole], in that order: 99%, 28.1 nM and below 20 nM.
With `CC(=O)N1CCC(N2CCC(O)(c3nc(-n4nc(C(C)C)c5cccc(F)c54)no3)CC2)CC1` [Example 457, 1-(4-{3-[7-fluoro-3-(propan-2-yl)-1H-indazol-1-yl]-1,2,4-oxadiazol-5-yl}-4-hydroxy-1,4′-bipiperidin-1′-yl)ethanone], in assay [1], the Emax worked out at 72.2% and the EC50 stood at 12.7 nM. The compound also returned an IC50 in assay [2] of 85.3 nM.
As for `CC(=O)N1CCC(N2CCC(c3nc(-n4nc(C(C)C)c5ccccc54)no3)CC2)CC1` [Example 458, 1-(4-{3-[3-(propan-2-yl)-1H-indazol-1-yl]-1,2,4-oxadiazol-5-yl}-1,4′-bipiperidin-1′-yl)ethanone trifluoroacetate], in assay [1], the Emax worked out at 85.4% and the EC50 was determined as 2.7 nM. The IC50 in assay [2] (setting [3]) is 66 nM.
In the case of `CCc1nn(-c2noc(C3CCN(C4CCN(C(=O)OC)CC4)CC3)n2)c2c(F)c(F)ccc12` [Example 459, methyl 4-[3-(3-ethyl-6,7-difluoro-1H-indazol-1-yl)-1,2,4-oxadiazol-5-yl]-1,4′-bipiperidine-1′-carboxylate trifluoroacetate], in assay [1], the Emax amounted to 68.2% and the EC50 came out at 7.6 nM. The IC50 in assay [2] (setting [3]) is below 20 nM.
For `CCc1nn(-c2noc(C3CCN(C4CCN(C(C)=O)CC4)CC3)n2)c2c(F)c(F)ccc12` [Example 460, 1-{4-[3-(3-ethyl-6,7-difluoro-1H-indazol-1-yl)-1,2,4-oxadiazol-5-yl]-1,4′-bipiperidin-1′-yl}ethanone trifluoroacetate], in that order: 78.6%, 5.3 nM and below 20 nM.
For the compound `CCc1nn(-c2noc(C3CCN(C4CCN(C(=O)COC)CC4)CC3)n2)c2c(F)c(F)ccc12` [Example 461, 1-{4-[3-(3-ethyl-6,7-difluoro-1H-indazol-1-yl)-1,2,4-oxadiazol-5-yl]-1,4′-bipiperidin-1′-yl}-2-methoxyethanone trifluoroacetate], in assay [1], the Emax was 65.5% and the response was half-maximal at 4.4 nM (EC50). The IC50 in assay [2] (setting [3]) is below 20 nM.
The matching figures for `COC(=O)N1CCC(N2CCC(c3nc(-n4nc(C(C)C)c5ccc(F)c(F)c54)no3)CC2)CC1` [Example 463, methyl 4-{3-[6,7-difluoro-3-(propan-2-yl)-1H-indazol-1-yl]-1,2,4-oxadiazol-5-yl}-1,4′-bipiperidine 1′-carboxylate trifluoroacetate]: 64.4%, 8.3 nM and below 20 nM.
The matching figures for `CC(=O)N1CCC(N2CCC(c3nc(-n4nc(C(C)C)c5ccc(F)c(F)c54)no3)CC2)CC1` [Example 464, 1-(4-{3-[6,7-difluoro-3-(propan-2-yl)-1H-indazol-1-yl]-1,2,4-oxadiazol-5-yl}-1,4′-bipiperidin-1′-yl}ethanone trifluoroacetate]: 70%, 31.2 nM and below 20 nM.
Turning to `CC(=O)N1CC(CN2CCC(c3nc(-n4nc(C(C)C)c5ccccc54)no3)CC2)C1` [Example 467, 1-{3-[(4-{3-[3-(propan-2-yl)-1H-indazol-1-yl]-1,2,4-oxadiazol-5-yl}piperidin-1-yl)methyl]azetidin-1-yl}ethanone trifluoroacetate], in assay [1], the Emax was 72.5% and the EC50 worked out at 6.9 nM. Besides, the IC50 in assay [2] (setting [3]) was 81.1 nM.
The matching figures for `CCc1nn(-c2noc(C3CCN(CC4CN(C(C)=O)C4)CC3)n2)c2c(F)c(F)ccc12` [Example 468, 1-[3-({4-[3-(3-ethyl-6,7-difluoro-1H-indazol-1-yl)-1,2,4-oxadiazol-5-yl]piperidin-1-yl}methyl)azetidin-1-yl]ethanone trifluoroacetate]: 69.8%, 22.4 nM and below 20 nM.
For `CCc1nn(-c2noc(C3CCN(CC4CN(C(=O)COC)C4)CC3)n2)c2c(F)c(F)ccc12` [Example 469, 1-[3-({4-[3-(3-ethyl-6,7-difluoro-1H-indazol-1-yl)-1,2,4-oxadiazol-5-yl]piperidin-1-yl}methyl)azetidin-1-yl]-2-methoxyethanone trifluoroacetate], in that order: 68.8%, 5.3 nM and 20.4 nM.
